Values joined by “and” are separate entries in the source; they are usually repeats but may differ in a detail not shown here. Equal values may be shown once. Toxic doses and inconclusive results are not listed.
Tested on: P388 leukemia ip, CD2F1 mice, survival T/C
Assay: NCI In Vivo Anticancer Drug Screen. Data for tumor model P388 Leukemia (intraperitoneal) in CD2F1 (CDF1) mice
Settings: endpoint: median survival time, higher = longer survival
Description: The antitumor activity of compounds was measured in mice bearing transplantable tumors. Survival or tumor size were measured and the results are expressed as the measurement made in the treated group (T) divided by the measurement made in the vehicle treated control group (C). The tumor model used in this assay is P388 Leukemia (intraperitoneal) in CD2F1 (CDF1) mice

[1] = dose: 50.0 mg/kg/injection, schedule: Q01DX009 (ip), vehicle: saline with Tween-80
[2] = dose: 100.0 mg/kg/injection, schedule: Q01DX009 (ip), vehicle: saline with Tween-80
[3] = dose: 200.0 mg/kg/injection, schedule: Q01DX009 (ip), vehicle: saline with Tween-80
[4] = dose: 60.0 mg/kg/injection, schedule: Q01DX005 (ip), vehicle: saline with Tween-80
[5] = dose: 120.0 mg/kg/injection, schedule: Q01DX005 (ip), vehicle: saline with Tween-80
[6] = dose: 50.0 mg/kg/injection, schedule: Q01DX005 (ip), vehicle: saline with Tween-80
[7] = dose: 100.0 mg/kg/injection, schedule: Q01DX005 (ip), vehicle: saline with Tween-80
[8] = dose: 200.0 mg/kg/injection, schedule: Q01DX005 (ip), vehicle: saline with Tween-80
[9] = dose: 100.0 mg/kg/injection, schedule: Q04DX002 (ip), vehicle: Klucel (hydroxypropylcellulose) (HPC)
[10] = dose: 200.0 mg/kg/injection, schedule: Q04DX002 (ip), vehicle: Klucel (hydroxypropylcellulose) (HPC)
[11] = dose: 100.0 mg/kg/injection, schedule: Q04DX003 (ip), vehicle: Klucel (hydroxypropylcellulose) (HPC)

## O=C1C2CCCC1C(c1ccc(Cl)cc1)NC2c1ccc(Cl)cc1 (configuration not stated)
dose: 100.0 mg/kg/injection, schedule: Q04DX003 (ip), vehicle: saline
  T/C: 103 % of control
dose: 200.0 mg/kg/injection, schedule: Q04DX003 (ip), vehicle: saline
  T/C: 103 % of control
dose: 400.0 mg/kg/injection, schedule: Q04DX003 (ip), vehicle: saline
  T/C: 96 % of control

## CS(C)=NC(=Nc1ccccc1)c1ccccc1
dose: 50.0 mg/kg/injection, schedule: Q04DX003 (ip), vehicle: saline with Tween-80
  T/C: 101 % of control
dose: 100.0 mg/kg/injection, schedule: Q04DX003 (ip), vehicle: saline with Tween-80
  T/C: 104 % of control

## COc1cc2cc(c1Cl)N1CCC(C)(O)C(=O)NC(C)C(=O)OC(CC1=O)C1(C)OC1C(C)C1CC(O)(NC(=O)O1)C(OC)/C=C\C=C(\C)C2OC (configuration not stated)
dose: 4.0 micrograms/kg/injection, schedule: Q01DX009 (ip), vehicle: distilled water + alcohol
  T/C: 150 % of control
dose: 16.0 micrograms/kg/injection, schedule: Q01DX009 (ip), vehicle: distilled water + alcohol
  T/C: 157 % of control
dose: 32.0 micrograms/kg/injection, schedule: Q01DX009 (ip), vehicle: distilled water + alcohol
  T/C: 150 % of control

## c1ccc2c(c1)nc1n2CC2(CS1)CSc1nc3ccccc3n1C2
[1]
  T/C: 88 % of control
[2]
  T/C: 91 % of control

## COc1cc2c(cc1O)-c1oncc1CCC2
dose: 100.0 mg/kg/injection, schedule: Q04DX002 (ip), vehicle: saline
  T/C: 94 % of control
dose: 200.0 mg/kg/injection, schedule: Q04DX002 (ip), vehicle: saline
  T/C: 98 % of control
dose: 400.0 mg/kg/injection, schedule: Q04DX002 (ip), vehicle: saline
  T/C: 95 % of control

## Cc1c(N)nc(C(CC(N)=O)NCC(N)C(N)=O)nc1C(=O)NC(C(=O)NC(C)C(O)C(C)C(=O)NC(C(=O)NCCc1nc(-c2nc(C(=O)NCCCNC(C)c3ccccc3)cs2)cs1)C(C)O)C(OC1OC(CO)C(O)C(O)C1OC1OC(CO)C(O)C(OC(N)=O)C1O)c1cnc[nH]1 (configuration not stated)
dose: 0.25 mg/kg/injection, schedule: Q01DX009 (ip), vehicle: water
  T/C: 104 % of control and 95 % of control
dose: 0.5 mg/kg/injection, schedule: Q01DX009 (ip), vehicle: water
  T/C: 100 % of control and 111 % of control and 88 % of control
dose: 1.0 mg/kg/injection, schedule: Q01DX009 (ip), vehicle: water
  T/C: 103 % of control and 104 % of control and 118 % of control
dose: 2.0 mg/kg/injection, schedule: Q01DX009 (ip), vehicle: water
  T/C: 100 % of control and 113 % of control
dose: 4.0 mg/kg/injection, schedule: Q01DX009 (ip), vehicle: water
  T/C: 114 % of control and 118 % of control
dose: 8.0 mg/kg/injection, schedule: Q01DX009 (ip), vehicle: water
  T/C: 100 % of control

## O=[N+]([O-])c1ccc(/C=C/[P+](c2ccccc2)(c2ccccc2)c2ccccc2)o1
dose: 0.78 mg/kg/injection, schedule: Q01DX009 (ip), vehicle: saline
  T/C: 103 % of control
dose: 1.56 mg/kg/injection, schedule: Q01DX009 (ip), vehicle: saline
  T/C: 98 % of control
dose: 3.12 mg/kg/injection, schedule: Q01DX009 (ip), vehicle: saline
  T/C: 101 % of control

## CC=C(C)c1ccccc1 (mixture of isomers)
dose: 25.0 mg/kg/injection, schedule: Q01DX009 (ip), vehicle: saline with Tween-80
  T/C: 104 % of control
[1]
  T/C: 100 % of control
[2]
  T/C: 103 % of control
[3]
  T/C: 105 % of control

## O=C1CSC(c2ccccc2)N1c1nncs1 (configuration not stated)
dose: 30.0 mg/kg/injection, schedule: Q01DX005 (ip), vehicle: Klucel (hydroxypropylcellulose) (HPC)
  T/C: 100 % of control
dose: 60.0 mg/kg/injection, schedule: Q01DX005 (ip), vehicle: Klucel (hydroxypropylcellulose) (HPC)
  T/C: 101 % of control
dose: 120.0 mg/kg/injection, schedule: Q01DX005 (ip), vehicle: Klucel (hydroxypropylcellulose) (HPC)
  T/C: 101 % of control
dose: 240.0 mg/kg/injection, schedule: Q01DX005 (ip), vehicle: Klucel (hydroxypropylcellulose) (HPC)
  T/C: 103 % of control

## COC(=O)C1CCC(/C(C#N)=C2/CCC(C(=O)OC)[N-]2)=N1.COC(=O)C1CCC(/C(C#N)=C2/CCC(C(=O)OC)[N-]2)=N1.[Cu+2] (configuration not stated)
[4]
  T/C: 103 % of control
[5]
  T/C: 94 % of control

## COc1ccc2c(=O)cc[nH]c2c1OC
[6]
  T/C: 100 % of control
[7]
  T/C: 94 % of control
[8]
  T/C: 94 % of control

## C/C(=N\NC1=NCCN1)c1cn(C2=NCCN2)nc1C
dose: 15.0 mg/kg/injection, schedule: Q01DX005 (ip), vehicle: saline
  T/C: 99 % of control
dose: 30.0 mg/kg/injection, schedule: Q01DX005 (ip), vehicle: saline
  T/C: 97 % of control
dose: 60.0 mg/kg/injection, schedule: Q01DX005 (ip), vehicle: saline
  T/C: 102 % of control and 106 % of control

## CCCCCCCCCCCCCCCCN1c2ccccc2C(C)(C)C12C=Cc1cccc([N+](=O)[O-])c1O2 (configuration not stated)
[1]
  T/C: 92 % of control
[2]
  T/C: 93 % of control
[3]
  T/C: 88 % of control

## CCC(Oc1c2ccoc2c(OC)c2oc(C)cc(=O)c12)C(=O)OCCN1CCOCC1 (configuration not stated)
[6]
  T/C: 102 % of control
[7]
  T/C: 104 % of control
[8]
  T/C: 98 % of control

## Clc1ccc(-c2cn3c(n2)SCC3)cc1
dose: 100.0 mg/kg/injection, schedule: Q01DX001 (ip), vehicle: Klucel (hydroxypropylcellulose) (HPC)
  T/C: 121 % of control
[9]
  T/C: 102 % of control
dose: 200.0 mg/kg/injection, schedule: Q01DX001 (ip), vehicle: Klucel (hydroxypropylcellulose) (HPC)
  T/C: 88 % of control
[10]
  T/C: 104 % of control
dose: 400.0 mg/kg/injection, schedule: Q04DX002 (ip), vehicle: Klucel (hydroxypropylcellulose) (HPC)
  T/C: 106 % of control

## CCOP(=O)(O)C1CCCC(C)[N-]1.CCOP(=O)(O)C1CCCC(C)[N-]1.[Co+2] (configuration not stated)
dose: 25.0 mg/kg/injection, schedule: Q04DX003 (ip), vehicle: Klucel (hydroxypropylcellulose) (HPC)
  T/C: 107 % of control
dose: 50.0 mg/kg/injection, schedule: Q04DX003 (ip), vehicle: Klucel (hydroxypropylcellulose) (HPC)
  T/C: 95 % of control
[11]
  T/C: 99 % of control and 105 % of control

## CC(=O)ON(C(C)=O)c1ccc(C(=O)OC2(C)CC(C)(C)N=N2)cc1 (configuration not stated)
dose: 12.5 mg/kg/injection, schedule: Q01DX009 (ip), vehicle: saline with Tween-80
  T/C: 86 % of control
[2]
  T/C: 87 % of control
[3]
  T/C: 106 % of control

## OC1(c2ccccc2)CCN(c2c3ccccc3nc3ccccc23)CC1
[9]
  T/C: 118 % of control
[10]
  T/C: 119 % of control

## c1ccc(C2=NN(c3ccccc3)C3C4CCC(C4)C23)cc1 (configuration not stated)
[11]
  T/C: 93 % of control
dose: 200.0 mg/kg/injection, schedule: Q04DX003 (ip), vehicle: Klucel (hydroxypropylcellulose) (HPC)
  T/C: 93 % of control
dose: 400.0 mg/kg/injection, schedule: Q04DX003 (ip), vehicle: Klucel (hydroxypropylcellulose) (HPC)
  T/C: 91 % of control

## C=C1SC(=Nc2ccc(Cl)cc2)N(c2nc(Cl)nc(Cl)n2)C12CCCCC2
dose: 50.0 mg/kg/injection, schedule: Q01DX009 (ip), vehicle: saline
  T/C: 98 % of control
dose: 100.0 mg/kg/injection, schedule: Q01DX009 (ip), vehicle: saline
  T/C: 90 % of control
dose: 200.0 mg/kg/injection, schedule: Q01DX009 (ip), vehicle: saline
  T/C: 89 % of control

## CC[Si](C=C1CCCCC1)(CC)CC
dose: 50.0 mg/kg/injection, schedule: Q01DX009 (ip), vehicle: Klucel (hydroxypropylcellulose) (HPC)
  T/C: 101 % of control
dose: 100.0 mg/kg/injection, schedule: Q01DX009 (ip), vehicle: Klucel (hydroxypropylcellulose) (HPC)
  T/C: 110 % of control
dose: 200.0 mg/kg/injection, schedule: Q01DX009 (ip), vehicle: Klucel (hydroxypropylcellulose) (HPC)
  T/C: 109 % of control

## O=P(N1CC=CCC1)(N1CC1)N1CC1
dose: 4.4 mg/kg/injection, schedule: Q04DX003 (ip), vehicle: saline
  T/C: 118 % of control
dose: 5.56 mg/kg/injection, schedule: Q01DX009 (ip), vehicle: saline
  T/C: 154 % of control
dose: 6.6 mg/kg/injection, schedule: Q04DX003 (ip), vehicle: saline
  T/C: 113 % of control
dose: 8.33 mg/kg/injection, schedule: Q01DX009 (ip), vehicle: saline
  T/C: 209 % of control
dose: 10.0 mg/kg/injection, schedule: Q04DX003 (ip), vehicle: saline
  T/C: 118 % of control

## CCOC(=O)C1=C(C)NC(=O)NC1c1coc2cc(C)cc(C)c2c1=O (configuration not stated)
dose: 12.5 mg/kg/injection, schedule: Q01DX005 (ip), vehicle: Klucel (hydroxypropylcellulose) (HPC)
  T/C: 86 % of control
dose: 25.0 mg/kg/injection, schedule: Q01DX005 (ip), vehicle: Klucel (hydroxypropylcellulose) (HPC)
  T/C: 91 % of control
dose: 50.0 mg/kg/injection, schedule: Q01DX005 (ip), vehicle: Klucel (hydroxypropylcellulose) (HPC)
  T/C: 98 % of control and 96 % of control

## O=C(Nc1ccc(F)cc1)N1CCCCC1
[4]
  T/C: 91 % of control
[5]
  T/C: 99 % of control
dose: 240.0 mg/kg/injection, schedule: Q01DX005 (ip), vehicle: saline with Tween-80
  T/C: 97 % of control

— PubChem BioAssay AID330 (DTP/NCI, 2004)
